Assay results taken from patent publication US8063240B2, “Prostaglandin E1 and E2 analogs for the treatment of various medical conditions” (Cayman Chemical Company, Incorporated, priority 2007, dated 2011).

Experiments:
[1] = Stability of purified HPLC peak left overnight in mobile phase; format: physicochemical; details: mobile phase 70:30:0.1 MeOH/H2O/AcOH
Method: Mobile phase: 70:30:0.1 MeOH/H2O/AcOH—premixed
Sample concentration: sample was dissolved at 100 mg/mL in 70:30 MeOH/H2O Peaks were collected manually at 0° C. and purified batches were kept at −20° C. at the end of each day. Peak 2 (title compound, 14.6 minute retention time) degrades about 6% when left at 4° C. overnight in mobile phase and degrades minimally (<1%) when left at −20° C. overnight. […] LCMS data of both products confirm masses consistent with the designations presented herein.

human EP4 receptor = target: T1, human EP4 receptor (Homo sapiens, UniProt P35408); assay: Functional Assay #4AGii (Cerep EP4 Agonist Assay), cAMP production, HTRF detection; format: cell-based; details: mean of N=2, percent of control response to 1 μM PGE2, transfected CHO cells
T1 construct: host or cells: CHO
Method: Alternative EP4 Receptor Agonism Assay
(Cerep, Catalog Reference 758-49a; Wilson, R. J., et al., Ibid.)
Evaluation of the agonist activity of compounds at the human EP4 receptor in transfected CHO cells, determined by measuring their effects on cAMP production using the HTRF detection method.
The cells are suspended in HBSS buffer (Invitrogen) complemented with HEPES 20 mM (pH 7.4) and 500 μM IBMX, then distributed in microplates at a density of 2.10^4 cells/well and incubated for 10 minutes at room temperature in the absence (control) or presence of the test compound or the reference agonist. For stimulated control measurements, separate assay wells contain 1 μM PGE2. Following incubation, the cells are lysed and the fluorescence acceptor (D2-labeled cAMP) and fluorescence donor (anti-cAMP antibody labeled with europium cryptate) are added. After 60 minutes at room temperature, the fluorescence transfer is measured at λex=337 nm and λem=620 and 665 nm using a microplate reader (Rubystar, BMG). The cAMP concentration is determined by dividing the signal measured at 665 nm by that measured at 620 nm (ratio). The results are expressed as a percent of the control response to 1 μM PGE2. The standard reference agonist is PGE2, which is tested in each experiment at several concentrations to generate a concentration-response curve from which its EC50 value is calculated.

human EP2 receptor = target: T2, human EP2 receptor (Homo sapiens, UniProt P43116); assay: Functional Assay #2AGii (Cerep EP2 Agonist Assay), cAMP production, HTRF detection; format: cell-based; details: mean of N=2, percent of control response to 10 μM PGE2, transfected CHO cells
T2 construct: host or cells: CHO
From the text: Alternative EP2 Receptor Agonism Assay
(Cerep, Catalog reference 758-54a; WILSON, R. J., RHODES, S. A., WOOD, R. L., SHIELD, V. J., NOEL, L. S., GRAY, D. W. and GILES H. (2004), Functional pharmacology of human prostanoid EP2 and EP4 receptors, Eur. J. Pharmacol., 501, 49.)
Evaluation of the agonist activity of compounds at the human EP2 receptor in transfected CHO cells, determined by measuring their effects on cAMP production using the HTRF detection method.
The cells are suspended in HBSS buffer (Invitrogen) complemented with HEPES 20 mM (pH 7.4) and 500 μM IBMX, then distributed in microplates at a density of 10^4 cells/well and incubated for 30 minutes at 37° C. in the absence (control) or presence of the test compound or the reference agonist. For stimulated control measurements, separate assay wells contain 10 μM PGE2. Following incubation, the cells are lysed and the fluorescence acceptor (D2-labeled cAMP) and fluorescence donor (anti-cAMP antibody labeled with europium cryptate) are added. After 60 minutes at room temperature, the fluorescence transfer is measured at λex=337 nm and λem=620 and 665 nm using a microplate reader (Rubystar, BMG). The cAMP concentration is determined by dividing the signal measured at 665 nm by that measured at 620 nm (ratio). The results are expressed as a percent of the control response to 10 μM PGE2. The standard reference agonist is PGE2, which is tested in each experiment at several concentrations to generate a concentration-response curve from which its EC50 value is calculated.

human EP1 receptor = target: T3, human EP1 receptor (Homo sapiens, UniProt P34995); assay: Functional Assay #1AGii (Cerep EP1 Agonist Assay), cytosolic Ca2+ mobilization, fluorimetric detection; format: cell-based; details: mean of N=2, percent of control response to 100 nM PGE2, transfected HEK-293 cells
T3 construct: host or cells: HEK-293
T3 sequence (P34995 1-402): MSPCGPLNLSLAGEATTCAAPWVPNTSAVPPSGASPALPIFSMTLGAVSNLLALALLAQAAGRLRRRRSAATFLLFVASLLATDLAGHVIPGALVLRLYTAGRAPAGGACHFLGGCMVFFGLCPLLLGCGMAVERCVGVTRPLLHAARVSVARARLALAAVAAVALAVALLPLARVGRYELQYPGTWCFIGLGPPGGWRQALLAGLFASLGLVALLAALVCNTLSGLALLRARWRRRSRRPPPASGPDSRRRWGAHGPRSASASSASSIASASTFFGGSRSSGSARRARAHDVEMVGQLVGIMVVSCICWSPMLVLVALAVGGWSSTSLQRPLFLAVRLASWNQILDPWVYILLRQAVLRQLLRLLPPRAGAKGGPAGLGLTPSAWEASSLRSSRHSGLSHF
From the text: Alternative EP1 Receptor Agonism Assay
(Cerep, Catalog reference 722-55a; UNGRIN, M. D., SINGH L. M. R., STOCCO, R., SAS, D. E. and ABRAMOVITZ, M. (1999), An automated aequorin luminescence-based functional calcium assay for G-Protein-Coupled Receptors. Analytical Biochem., 272, 34.)
Evaluation of the agonist activity of compounds at the human EP1 receptor in transfected HEK-293 cells, determined by measuring their effect on cytosolic Ca^2+ ion mobilization using a fluorimetric detection method.
The cells are suspended in DMEM buffer (Invitrogen), then distributed in microplates at a density of 3.10^4 cells/well. The fluorescent probe (Fluo4 NR, Invitrogen) mixed with probenicid in HBSS buffer (Invitrogen) complemented with 20 mM Hepes (Invitrogen) (pH 7.4) is then added into each well and equilibrated with the cells for 30 minutes at 37° C. then 30 minutes at 22° C. Thereafter, the assay plates are positioned in a microplate reader (CellLux, PerkinElmer) which is used for the addition of the test compound, reference agonist or HBSS buffer (basal control), and the measurements of changes in fluorescence intensity which varies proportionally to the free cytosolic Ca^2+ ion concentration. For stimulated control measurements, PGE2 at 100 nM is added in separate assay wells.
The results are expressed as a percent of the control response to 100 nM PGE2. The standard reference agonist is PGE2, which is tested in each experiment at several concentrations to generate a concentration-response curve from which its EC50 value is calculated.

T1 sequence (P35408 whole entry): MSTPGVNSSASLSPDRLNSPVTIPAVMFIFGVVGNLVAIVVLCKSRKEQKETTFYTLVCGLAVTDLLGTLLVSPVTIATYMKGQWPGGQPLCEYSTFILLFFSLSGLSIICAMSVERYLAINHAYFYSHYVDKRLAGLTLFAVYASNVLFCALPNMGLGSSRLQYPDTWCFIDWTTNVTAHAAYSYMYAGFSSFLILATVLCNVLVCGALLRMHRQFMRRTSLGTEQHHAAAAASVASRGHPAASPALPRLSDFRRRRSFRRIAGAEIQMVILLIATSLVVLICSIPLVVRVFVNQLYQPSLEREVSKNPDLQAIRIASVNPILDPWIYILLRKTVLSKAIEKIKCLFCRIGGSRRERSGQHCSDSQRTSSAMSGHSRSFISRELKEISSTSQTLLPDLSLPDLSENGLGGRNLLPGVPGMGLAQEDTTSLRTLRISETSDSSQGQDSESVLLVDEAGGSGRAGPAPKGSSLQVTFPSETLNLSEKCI
T2 sequence (P43116 whole entry): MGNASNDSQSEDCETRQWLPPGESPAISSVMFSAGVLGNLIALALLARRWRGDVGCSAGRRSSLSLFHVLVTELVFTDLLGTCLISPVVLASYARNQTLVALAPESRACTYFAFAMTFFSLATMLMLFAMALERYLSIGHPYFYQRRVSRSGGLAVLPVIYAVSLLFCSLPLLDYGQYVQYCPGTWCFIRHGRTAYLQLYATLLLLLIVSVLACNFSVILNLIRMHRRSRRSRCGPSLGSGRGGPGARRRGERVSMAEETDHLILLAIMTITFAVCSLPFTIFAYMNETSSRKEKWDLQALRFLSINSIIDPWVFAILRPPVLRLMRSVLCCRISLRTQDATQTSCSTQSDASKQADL

| degradation when left overnight in mobile phase ([1]; 4° C. overnight) | degradation when left overnight in mobile phase ([1]; −20° C. overnight) | % Control Agonist response @ compound concentration (human EP4 receptor; 0.1 μM) | % Control Agonist response @ compound concentration (human EP4 receptor; 1 μM) | % Control Agonist response @ compound concentration (human EP4 receptor; 10 μM) | % Control Agonist response @ compound concentration (human EP2 receptor; 0.1 μM) | % Control Agonist response @ compound concentration (human EP2 receptor; 1 μM) | % Control Agonist response @ compound concentration (human EP2 receptor; 10 μM) | % Control Agonist response @ compound concentration (human EP1 receptor; 0.1 μM) | % Control Agonist response @ compound concentration (human EP1 receptor; 1 μM) | % Control Agonist response @ compound concentration (human EP1 receptor; 10 μM) | SMILES |
| --- | --- | --- | --- | --- | --- | --- | --- | --- | --- | --- | --- |
| about 6% | < 1% | – | – | – | – | – | – | – | – | – | O=C(O)CCC/C=C\C[C@H]1C(=O)C[C@H](F)[C@@H]1/C=C/[C@@H](O)C1Cc2ccccc2C1 (single isomer, unassigned) [Example 17] |
| – | – | −1% | 4% | 29% | 0% | −1% | 5% | 80% | 88% | 144% | O=C(O)CCC/C=C\C[C@H]1C(=O)C[C@@H](O)[C@@H]1/C=C/[C@@H](O)c1cc2ccccc2s1 [Example 7, (Z)-7-((1R,2R,3R)-2-((R,E)-3-(benzo[b]thiophen-2-yl)-3-hydroxyprop-1-enyl)-3-hydroxy-5-oxocyclopentyl)hept-5-enoic Acid] |
